According to ChEMBL document CHEMBL1127096, “Synthesis and anticonvulsant activity of the (+)- and ()-enantiomers of 1,2,3,4-tetrahydro-5-(2-phosphonoethyl)-3-isoquinolinecarboxylic acid, a competitive NMDA antagonist” (Bioorg Med Chem Lett, 1993):
pIC50: −log10 of the molar value.

What was measured:
Mus musculus [1] = assay: Tested in vivo for anticonvulsant activity against maximal electroshock in mouse, intravenously (MES tested at 1 h); assay type: functional
Mus musculus [2] = assay: Tested in vivo for the ability to produce ataxia in mouse, intravenously. (ataxia tested at 30 min); assay type: functional
[3] = Tested for the therapeutic index, which was determined as the ratio of ED50 for ataxia and ED50 to prevent seizures; details: for selectivity ratio: read-out: TI
[4] = Partition coefficient (logP); assay type: physicochemical; details: octanol/water
[5] = Tested for the NMDA antagonist activity, glutamate induced LDH release in cultured neuronal cells; assay type: functional, cell-based
[6] = Tested for the NMDA antagonist activity, glutamate induced calcium influx in cultured neuronal cells; assay type: functional, cell-based
Glutamate NMDA receptor = assay: Tested for the inhibitory activity against NMDA receptor site as measured in a [3H]CPP binding assay of rat brain neuronal membranes
Mus musculus [7] = assay: Tested in vivo for anticonvulsant activity against maximal electroshock in mouse, intravenously; assay type: functional

logP [4]	pIC50 [5]	pIC50 [6]	SMILES	ED50 (Mus musculus [1]) [mg/kg]	ED50 (Mus musculus [2]) [mg/kg]	selectivity ratio [3]	ED50 (Mus musculus [7]) [mg/kg]	also measured
			O=C(O)[C@H]1Cc2c(CCP(=O)(O)O)cccc2CN1	3.56	6.29	1.76		
-3.4	5.05	5.62	O=C(O)C1CN(CCCP(=O)(O)O)CCN1 (centres undefined)			2.21		ED50 (Mus musculus [1]; Mus musculus, iv, 1 h, read-out: ED50): 2.35 mg/kg; ED50 (Mus musculus [2]; Mus musculus, iv, 0.5 h, read-out: ED50): 5.21 mg/kg
1.4	5.06	5.29	O=C(O)[C@H]1Cc2c(CCP(=O)(O)O)cccc2CN1 (racemic)	9.2	15.84			pIC50 (Glutamate NMDA receptor): 6.57; TI [3]: 1.72
			C/C(=C\C(N)C(=O)O)CP(=O)(O)O (racemic) [CGP-37849]				21	
			C/C(=C\C(N)C(=O)O)CP(=O)(O)O (single isomer, unassigned; (+)) [CGP-37849]				7	
			C/C(=C\C(N)C(=O)O)CP(=O)(O)O (single isomer, unassigned; (-)) [CGP-37849]				>60	
